Test [1] has as its target ACC2 (acetyl-CoA carboxylase 2) (Homo sapiens, UniProt O00763). The test can be described thus: ACC2 enzyme inhibition assay. It counts as biochemical.
For test [2], the target named is ACC1 (acetyl-CoA carboxylase 1) (Homo sapiens, UniProt Q13085). The test can be described thus: ACC1 enzyme inhibition assay. It counts as biochemical.

ACC2 (acetyl-CoA carboxylase 2), sequence (O00763 whole entry): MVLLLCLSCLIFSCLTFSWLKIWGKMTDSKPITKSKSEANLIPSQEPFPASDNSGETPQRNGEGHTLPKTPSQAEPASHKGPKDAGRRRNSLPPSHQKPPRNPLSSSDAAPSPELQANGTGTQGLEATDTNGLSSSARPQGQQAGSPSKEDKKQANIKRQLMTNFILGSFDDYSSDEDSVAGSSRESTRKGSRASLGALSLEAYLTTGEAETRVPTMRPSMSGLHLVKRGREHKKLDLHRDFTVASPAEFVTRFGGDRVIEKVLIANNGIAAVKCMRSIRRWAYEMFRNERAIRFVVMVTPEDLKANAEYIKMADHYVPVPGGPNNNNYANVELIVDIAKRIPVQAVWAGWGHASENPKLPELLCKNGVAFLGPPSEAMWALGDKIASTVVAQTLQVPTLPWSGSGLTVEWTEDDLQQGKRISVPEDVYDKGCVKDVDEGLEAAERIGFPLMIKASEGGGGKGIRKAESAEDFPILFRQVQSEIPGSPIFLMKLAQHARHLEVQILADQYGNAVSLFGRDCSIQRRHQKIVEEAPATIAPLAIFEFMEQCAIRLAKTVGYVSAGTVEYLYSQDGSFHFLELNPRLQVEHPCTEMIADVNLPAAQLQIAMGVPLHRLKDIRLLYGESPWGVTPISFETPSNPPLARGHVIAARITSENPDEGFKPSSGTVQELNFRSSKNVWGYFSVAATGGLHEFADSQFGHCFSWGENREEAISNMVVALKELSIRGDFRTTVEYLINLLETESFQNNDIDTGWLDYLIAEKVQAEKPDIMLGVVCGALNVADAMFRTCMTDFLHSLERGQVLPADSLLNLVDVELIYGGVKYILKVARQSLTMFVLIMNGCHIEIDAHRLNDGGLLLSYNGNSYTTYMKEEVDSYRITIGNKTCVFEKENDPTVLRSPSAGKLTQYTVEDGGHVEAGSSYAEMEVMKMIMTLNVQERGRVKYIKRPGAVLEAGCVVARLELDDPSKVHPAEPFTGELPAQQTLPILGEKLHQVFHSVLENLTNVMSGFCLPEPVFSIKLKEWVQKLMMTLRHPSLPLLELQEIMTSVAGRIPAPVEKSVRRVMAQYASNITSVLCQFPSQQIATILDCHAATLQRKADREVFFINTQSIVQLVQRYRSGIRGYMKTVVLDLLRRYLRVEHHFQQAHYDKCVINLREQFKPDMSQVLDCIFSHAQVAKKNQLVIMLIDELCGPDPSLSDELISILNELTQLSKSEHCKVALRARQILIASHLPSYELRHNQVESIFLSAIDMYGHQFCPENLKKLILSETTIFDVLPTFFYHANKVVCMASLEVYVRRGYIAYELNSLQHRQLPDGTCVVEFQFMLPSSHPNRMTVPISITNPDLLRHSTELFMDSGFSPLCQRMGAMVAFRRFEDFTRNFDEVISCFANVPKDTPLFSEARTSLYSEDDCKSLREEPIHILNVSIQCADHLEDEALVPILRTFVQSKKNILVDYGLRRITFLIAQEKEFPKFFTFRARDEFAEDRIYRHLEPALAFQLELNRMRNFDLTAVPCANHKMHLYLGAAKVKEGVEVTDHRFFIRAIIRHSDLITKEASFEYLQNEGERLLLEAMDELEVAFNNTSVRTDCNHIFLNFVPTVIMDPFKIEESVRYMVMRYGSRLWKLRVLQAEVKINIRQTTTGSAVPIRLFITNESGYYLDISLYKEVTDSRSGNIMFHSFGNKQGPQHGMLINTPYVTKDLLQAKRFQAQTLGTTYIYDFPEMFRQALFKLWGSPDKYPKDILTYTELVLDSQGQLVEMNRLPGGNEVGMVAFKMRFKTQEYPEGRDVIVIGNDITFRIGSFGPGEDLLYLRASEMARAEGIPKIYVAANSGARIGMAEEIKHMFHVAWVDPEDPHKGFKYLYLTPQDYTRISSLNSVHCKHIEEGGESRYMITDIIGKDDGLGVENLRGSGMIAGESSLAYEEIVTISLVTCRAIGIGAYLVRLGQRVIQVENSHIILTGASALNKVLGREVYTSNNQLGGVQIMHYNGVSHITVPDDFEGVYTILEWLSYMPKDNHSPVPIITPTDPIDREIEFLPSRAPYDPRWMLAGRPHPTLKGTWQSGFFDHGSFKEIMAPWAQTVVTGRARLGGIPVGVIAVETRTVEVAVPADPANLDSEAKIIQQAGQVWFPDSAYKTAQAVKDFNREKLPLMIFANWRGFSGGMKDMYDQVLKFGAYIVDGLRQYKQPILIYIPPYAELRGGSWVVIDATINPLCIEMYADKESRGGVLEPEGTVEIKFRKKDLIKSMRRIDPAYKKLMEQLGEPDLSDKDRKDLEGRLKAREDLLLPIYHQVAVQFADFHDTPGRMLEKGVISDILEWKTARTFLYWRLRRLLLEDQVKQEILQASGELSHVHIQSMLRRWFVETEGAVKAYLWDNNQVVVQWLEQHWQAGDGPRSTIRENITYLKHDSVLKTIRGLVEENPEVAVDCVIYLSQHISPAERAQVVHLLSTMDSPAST

Broadly, the IC50 is the point on the concentration scale where inhibition reaches its midpoint. Lower therefore signals greater potency in that assay. Regarding ND-654, the concentration for half-maximal inhibition (IC50) in test [1] turned out to be 8 nM; in test [2] it was 3 nM.

The values above are taken from paper PMC6643297 (Cell metabolism, 2018).
